Experimental data from the NIST ThermoML archive (doi:10.1016/j.fluid.2008.11.013).
± gives the expanded uncertainty stated by the source.

Conditions: 101.33 kPa, Liquid, Vibrating tube method

SMILES | mass density (298.15 K) [kg/m3] | mass density (303.15 K) [kg/m3] | mass density (308.14 K) [kg/m3] | mass density (313.15 K) [kg/m3] | mass density (318.15 K) [kg/m3] | mass density (323.14 K) [kg/m3] | mass density (328.14 K) [kg/m3] | mass density (333.14 K) [kg/m3] | mass density (338.14 K) [kg/m3] | mass density (343.14 K) [kg/m3] | mass density (348.15 K) [kg/m3] | mass density (278.16 K) [kg/m3] | mass density (283.14 K) [kg/m3] | mass density (288.14 K) [kg/m3] | mass density (293.15 K) [kg/m3] | mass density (298.14 K) [kg/m3] | mass density (303.14 K) [kg/m3] | mass density (313.14 K) [kg/m3] | mass density (318.14 K) [kg/m3] | mass density (338.15 K) [kg/m3]
CCCCCCCC[N+]1(C)CCCC1.O=S(=O)([N-]S(=O)(=O)C(F)(F)F)C(F)(F)F | 1291.2 ± 12 | 1286.9 ± 12 | 1283 ± 12 | 1279.1 ± 12 | 1275.1 ± 11 | 1271.4 ± 11 | 1267.5 ± 11 | 1263.7 ± 11 | 1259.7 ± 11 | 1255.7 ± 11 | 1251.7 ± 11 |  |  |  |  |  |  |  |  | 
CCCCCC[N+]1(C)CCCC1.O=S(=O)([N-]S(=O)(=O)C(F)(F)F)C(F)(F)F |  |  | 1326.8 ± 12 |  |  | 1314.1 ± 12 | 1309.9 ± 12 | 1305.6 ± 12 |  | 1297.1 ± 12 |  | 1352.1 ± 13 | 1347.7 ± 13 | 1343.4 ± 13 | 1339.5 ± 13 | 1335.3 ± 13 | 1331.1 ± 12 | 1322.6 ± 12 | 1318.3 ± 12 | 1301.4 ± 12
